Measured values as given in article PMC6950057, “Toxicity, Pharmacokinetics, and Gut Microbiome of Oral Administration of Sesterterpene MHO7 Derived from a Marine Fungus” (Marine Drugs, 2019).
Read-outs that look alike come from different tables or passages of the source.

Legend:
[1] = Tissue distribution after single oral dose; assay type: in vivo, mice; details: for concentration at 1 h / concentration at 4 h / concentration at 8 h / concentration at 12 h / concentration at 20 h / concentration at 30 h / Kp: KM, mouse; for Kp: female
Procedure: The animals and treatment methods were the same as in the pharmacokinetic studies. Afterwards, the biological samples (n = 6 per group) were collected at 1, 4, 8, 12, 20, and 30 h, and the tissues including heart, liver, spleen, lung, kidney, stomach, intestine, brain, muscle (hind limb), fat (white adipose tissue ), reproductive organs (uterus, fallopian tube and ovary) stomach and its contents, and intestine and its contents, and the blood samples were simultaneously collected. All the tissues were washed with cold physiological saline (4 °C), excess fluid blotted, accurately weighed, and subjected to the processing as described in the sample preparation. QC samples and standard curve series solutions were prepared in the same way of blank gastrointestinal contents and livers, respectively. The concentrations of HQC, MQC, and LQC in mice tissues were 10, 1, and 0.1 μM·L^−1, respectively, and the concentrations of standard curve series solutions were 50, 25, 10, 5, 2.5, 1, 0.5, 0.25, 0.1, and 0.005 μM·L^−1 for high and low concentrations of standard curves.

[2] = Acute toxicity / maximum tolerated dose, oral; assay type: in vivo, mice; set-up: Body weight / Heart weight / Liver weight / spleen weight / lung weight / kidney weight / Reproductive organs weight / brain weight: unit not given here; details: both sexes, mouse, in vivo, 2400 mg·kg^−1; oral administration, male and female KM mice; read-out: maximum tolerable dose (MTD)
Procedure: (§1) Male and female KM mice of 8–10 weeks of age (20–22 g) were used in acute toxicity experiment and only female KM mice were subjected in other animal experiments. All mice were purchased from the Vital River Laboratory Animal Technology Co. Ltd. (Beijing, China). The mice were bred in a standard environment (23 ± 1 °C; humidity of 60 ± 5%) with a 12-h light/dark cycle and food and water were provided ad libitum. All animal protocols were approved by the Animal Care and Use Committee of Wuhan University Center for Animal Experiment ABSL-Ⅲ Laboratory and complied with the Guide for the Care and Use of Laboratory Animals (NIH publication, 8th edition, 2011). In total, 130 mice were used for in vivo studies under the ethical approved protocols.
(§2) Male and female KM mice of 8–10 weeks of age (20–22 g) were used in acute toxicity experiment. After animals were acclimatized for 1 week, 20 female and 20 male mice were randomly and evenly divided into four groups. The mice of acute toxicity experiment were fasted overnight and administered by the oral dose of MHO7 (2400 mg·kg^−1, bw) diluted in corn oil the next morning. Then, mice were placed with free access to chow and water. […] The number surviving and their behaviors was also recorded every day.

[3] = test system: KM mice; test: Acute toxicity / maximum tolerated dose, oral; assay type: in vivo; set-up: Body weight / Heart weight / Liver weight / spleen weight / lung weight / kidney weight / Reproductive organs weight / brain weight: unit not given here; details: for Body weight / Heart weight / Liver weight / Reproductive organs weight / brain weight / kidney weight / lung weight / spleen weight: 2400 mg/kg
Procedure: as §1, §2

[4] = reproductive organs (uterus, fallopian tube and ovary), oral 500 mg·kg^−1, female mice, read-out: Concentration in Reproductive organs
[5] = spleen, oral 500 mg·kg^−1, female mice, read-out: Concentration in Spleen

SMILES: CC(C)=C/C=C/[C@H](C)[C@H]1CC[C@]2(C)C[C@@H]3C(C)=CC(=O)[C@H]3/C(C=O)=C\C[C@@H]12 [MHO7, 6-epi-ophiobolin G]
- concentration at 1 h [1, 4]: 880 ± 680 ng/g
- concentration at 4 h [1, 4]: 2290 ± 1800 ng/g
- concentration at 8 h [1, 4]: 23900 ± 11300 ng/g
- concentration at 12 h [1, 4]: 13700 ± 10300 ng/g
- concentration at 20 h [1, 4]: 1460 ± 1230 ng/g
- concentration at 30 h [1, 4]: 360 ± 460 ng/g
- concentration at 1 h [1, 5]: 40 ± 30 ng/g
- concentration at 4 h [1, 5]: 430 ± 200 ng/g
- concentration at 8 h [1, 5]: 480 ± 500 ng/g
- concentration at 12 h [1, 5]: 200 ± 140 ng/g
- concentration at 20 h [1, 5]: 310 ± 20 ng/g
- concentration at 30 h [1, 5]: 10 ± 4 ng/g
- Kp ([1]; brain, over 1-30 h, oral 500 mg·kg^−1, read-out: tissue/plasma concentration ratio range, brain): 0.36 to 6.11
- Kp ([1]; fat (white adipose tissue), over 1-30 h, oral 500 mg·kg^−1, read-out: tissue/plasma concentration ratio range, fat): 2.33 to 14
- Kp ([1]; heart / plasma, over 1-30 h, oral 500 mg·kg^−1, read-out: tissue/plasma concentration ratio range, heart): 0.31 to 4.2
- Kp ([1]; intestines, oral 500 mg·kg^−1, read-out: tissue/plasma concentration ratio, intestines): > 100
- Kp ([1]; kidney, over 1-30 h, oral 500 mg·kg^−1, read-out: tissue/plasma concentration ratio range, kidney): 0.68 to 17.2
- Kp ([1]; liver, over 1-30 h, oral 500 mg·kg^−1, read-out: tissue/plasma concentration ratio range, liver): 0.18 to 17.4
- Kp ([1]; lung, over 1-30 h, oral 500 mg·kg^−1, read-out: tissue/plasma concentration ratio range, lung): 0.72 to 6.84
- Kp ([1]; muscle (hind limb), over 1-30 h, oral 500 mg·kg^−1, read-out: tissue/plasma concentration ratio range, muscle): 0.99 to 5.54
- Kp ([1]; reproductive organs (uterus, fallopian tube and ovary), over 1-30 h, oral 500 mg·kg^−1, read-out: tissue/plasma concentration ratio range, reproductive organs): 6.05 to 30.4
- Kp ([1]; spleen, over 1-30 h, oral 500 mg·kg^−1, read-out: tissue/plasma concentration ratio range, spleen): 0.28 to 8.55
- Kp ([1]; stomach, oral 500 mg·kg^−1, read-out: tissue/plasma concentration ratio, stomach): > 1000
- amount in the intestine and its contents, of the intake ([1]; oral 500 mg·kg^−1, female mice): less than 5%
- amount in the stomach and its contents, of the intake ([1]; oral 500 mg·kg^−1, female mice): 16.79%
- concentration range in fat ([1]; over 1-30 h, oral 500 mg·kg^−1): 0.18–11.15
- concentration range in the brain ([1]; over 1-30 h, oral 500 mg·kg^−1): 0.01–0.95
- concentration range in the heart ([1]; over 1-30 h, oral 500 mg·kg^−1): 0.04–0.85
- concentration range in the kidney ([1]; over 1-30 h, oral 500 mg·kg^−1): 0.07–8.16
- concentration range in the liver ([1]; over 1-30 h, oral 500 mg·kg^−1): 0.01–3.01
- concentration range in the lung ([1]; over 1-30 h, oral 500 mg·kg^−1): 0.08–2.34
- concentration range in the muscle ([1]; over 1-30 h, oral 500 mg·kg^−1): 0.02–1.42
- concentration range in the reproductive organs ([1]; over 1-30 h, oral 500 mg·kg^−1): 0.36–23.90
- concentration range in the spleen ([1]; over 1-30 h, oral 500 mg·kg^−1): 0.01–0.48
- MTD at 2 weeks [2]: 2400 mg/kg
- Body weight ([3]; female mice): 33.30±2.1
- Heart weight ([3]; female mice): 0.15±0.01
- Liver weight ([3]; female mice): 1.49±0.09
- Reproductive organs weight ([3]; female mice): 0.21±0.05
- brain weight ([3]; female mice): 0.40±0.07
- kidney weight ([3]; female mice): 0.46±0.02
- lung weight ([3]; female mice): 0.22±0.02
- spleen weight ([3]; female mice): 0.13±0.05
- Body weight ([3]; male mice): 38.75±2.96
- Heart weight ([3]; male mice): 0.18±0.02
- Liver weight ([3]; male mice): 2.39±0.38
- Reproductive organs weight ([3]; male mice): 0.19±0.02
- brain weight ([3]; male mice): 0.42±0.06
- kidney weight ([3]; male mice): 0.58±0.06
- lung weight ([3]; male mice): 0.22±0.03
- spleen weight ([3]; male mice): 0.15±0.03
- weight ranges (Table S5), treatment vs control group ([3]; oral 2400 mg·kg^−1): no significant difference
- observed toxicity ([3]; oral 2400 mg·kg^−1, 14 days observation): No obvious toxicity was observed
- body weight, MHO7 group vs control group ([3]; oral 2400 mg·kg^−1, after seven days): no significant difference
- diarrhea ([3]; oral 2400 mg·kg^−1, female and male mice, returned to normal within two days): a small number of animals with diarrhea was found during the first day
- tolerability ([3]; oral administration 2400 mg·kg^−1): well-tolerated
